What is called Ki is a dissociation constant, usually derived from enzyme kinetics or from competition with a known ligand. Read a low Ki as a stronger hold on the target.

From publication PMC4669759 (Cell Death & Disease, 2015) come the findings set out here.

Several values for one entry are separate records, joined by “and”; a condition that tells them apart may be missing. Equal entries are not always repeated.

One experiment concerns the target BCL-XL (Homo sapiens, UniProt Q07817). Put plainly: TR-FRET binding affinity assay, BCL-XL. Here is the method:
(§1) TR-FRET-binding affinity assays were performed for BCL-2, BCL-XL, and MCL-1 in 4.52 mM monobasic potassium phosphate, 15.48 mM dibasic potassium phosphate, 1 mM sodium EDTA, 0.05% Pluronic F-68 detergent, 50 mM sodium chloride, and 1 mM DTT (pH 7.5) as described previously for BCL-XL.[6] For MCL-1 assays, GST-tagged MCL-1 (1 nM) was mixed with 100 nM f-Bak, 1 nM Tb-labeled anti-GST antibody, and compound at room temperature (RT) for 60 min. Fluorescence was measured on an Envision plate reader (Perkin-Elmer, Waltham, MA, USA) using a 340/35 nm excitation filter and 520/525 (f-Bak) and 495/510 nm (Tb-labeled anti-GST antibody) emission filters.
A general note: In TR-FRET formats the signal depends on donor and acceptor labels being close together.

The subject of another experiment is NOXA. Put plainly: NOXA levels by immunoblotting in HCC-1806 cells. In kind it is cell-based. The settings on record: 8 h, up to 20 μM. Here is the method: Figure 1 MCL-1 levels are elevated in cancer cells after treatment with MCL-1-binding small molecules. (a) H929 multiple myeloma cells were treated for 4 h with 10 μM A-1210477 before immunopreciptating MCL-1. […] A control H929 lysate was run in lane 1, and an immunoprecipitation with a non-specific antibody (Ig) was run in lane 2. The positions of molecular weight markers (specified in kiloDaltons) are indicated on the left. (b) HCC-1806 breast cancer cells were incubated with increasing concentrations of A-1210477 (0.1, 0.5, 1, 5, 10, 15, or 20 μM) or bortezomib (2, 10, or 50 nM) for 8 h before assessing MCL-1 and NOXA levels by immunoblotting. β-Actin was probed as a protein loading control. The lower graph depicts reverse transcriptase-PCR quantification of MCL1 mRNA from HCC-1806 cells treated for 8 h with similar concentrations of A-1210477. (c) HCC-1806 cells were incubated with increasing concentrations (0.1, 0.5, 1, 5, 10, and 20 μM) of A-954248, A-962653, or A-1248767 for 24 h before assessing MCL-1 and BCL-XL levels by immunoblotting. β-Actin was probed as a protein loading control
Cells were scraped into cold PBS, pelleted, and then resuspended in 100–200 μl ice-cold insect cell lysis buffer supplemented with protease inhibitors (BD Biosciences Pharmingen, San Diego, CA, USA). Cells were lysed by sonication, and the debris was cleared in a microcentrifuge. […]
For orientation: Immunoblotting shows a protein as a band on a membrane.

A further experiment relates to H929 cells. Put plainly: Hallmarks of apoptosis in H929 cells (caspase-3/-7, mitochondrial membrane depolarization, phosphatidylserine). The settings on record: H929, 4 h. Format: cell-based, human. Here is the method:
Figure 4 Indole-2-carboxylic acids induce the hallmarks of apoptosis in MCL-1-dependent cancer cell line H929. (a) Digitonin-permeabilized H929 cells were treated with 10 μM BH3 peptides for 4 h, and intact H929 cells were incubated with increasing concentrations (0.1–10 μM) of A-1208746 for 4 h before assessing the levels of cytochrome c released into the cytosol. (b) H929 and RS4;11 cells were incubated with increasing concentrations of MCL-1 inhibitors or the BCL-2-selective inhibitor ABT-199 (venetoclax) for 48 h before determining cell viability. Cell killing IC50s are plotted with each value representing the mean of three separate experiments. […]
H929 cells were cultured in RPMI 1640 (Invitrogen Corp., Grand Island, NY, USA) supplemented with 10% fetal bovine serum (Invitrogen), 1% sodium pyruvate, 25 mM HEPES, 4.5 g/l glucose, and 1% penicillin/streptomycin (Sigma) and maintained in a humidified chamber at 37 °C containing 5% CO2. […] Following treatment, the hallmarks of apoptosis (activation of caspase-3/-7, mitochondrial membrane depolarization, and phosphatidylserine externalization) were measured using the IntelliCyt (Albuquerque, NM, USA) MultiCyt 4-Plex Apoptosis Screening Kit according to the manufacturer's instructions and read by flow cytometry using a HTFC screening system (IntelliCyt). […] Data were expressed as the percentage of singlet cells. […]

Another experiment has as its target MCL-1 (Homo sapiens, UniProt Q07820). Kind of experiment: TR-FRET binding affinity assay, MCL-1. Here is the method: as §1

Sequence of MCL-1 (Q07820 whole entry): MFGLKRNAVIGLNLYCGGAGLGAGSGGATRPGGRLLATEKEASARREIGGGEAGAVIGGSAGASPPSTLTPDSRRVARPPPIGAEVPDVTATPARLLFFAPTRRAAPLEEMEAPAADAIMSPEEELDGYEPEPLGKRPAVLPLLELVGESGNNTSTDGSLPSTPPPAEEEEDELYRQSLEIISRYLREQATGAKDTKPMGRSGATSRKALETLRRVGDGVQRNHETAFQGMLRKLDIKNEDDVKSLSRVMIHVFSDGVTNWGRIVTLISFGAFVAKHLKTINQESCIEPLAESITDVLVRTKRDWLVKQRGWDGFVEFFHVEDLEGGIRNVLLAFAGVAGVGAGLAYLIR
Sequence of BCL-XL (Q07817 whole entry): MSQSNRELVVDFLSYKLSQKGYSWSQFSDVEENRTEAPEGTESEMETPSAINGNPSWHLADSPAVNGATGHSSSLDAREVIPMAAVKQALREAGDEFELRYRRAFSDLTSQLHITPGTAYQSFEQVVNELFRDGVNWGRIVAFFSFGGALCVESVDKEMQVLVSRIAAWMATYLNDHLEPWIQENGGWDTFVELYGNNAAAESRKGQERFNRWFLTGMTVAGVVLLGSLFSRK

In the case of `Cc1nn(C)c(COc2ccc(N3CCN(S(=O)(=O)N(C)C)CC3)cc2)c1-c1cccc2c(CCCOc3cccc4ccccc34)c(C(=O)O)n(CCN3CCOCC3)c12` [A-1210477], the Ki is above 660 nM at BCL-XL; 0.4 to 0.5 nM and 0.454 nM at MCL-1. For the same compound, the “effect on NOXA levels” value in the experiment with NOXA is recorded as “no effect”. Besides, the “induction of hallmarks of apoptosis (mitochondrial membrane depolarization, caspase-3/-7 activation, phosphatidylserine externalization)” value with H929 cells was “induced the hallmarks of apoptosis”.
